{
  "source": "the supplement of paper PMC10627819",
  "key": {"S. aureus DSM 20231 [1]": {"system": "S. aureus DSM 20231", "assay": "fitness (endpoint OD595 vs no drug) (fraction); higher = more growth", "in_short": "(§1)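 Bacterial fitness was scored as optical density at the stationary-phase transition relative to the robust mean of no-drug control wells. Scores are capped at 1. The growth data were OD595 readings every 30 min for 14 h at 37 °C, background-subtracted against the first reading, from 384-well plates inoculated at OD595 0.01 in TSB, LB Lennox or CY.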"}, "S. aureus Newman [2]": {"system": "S. aureus Newman", "assay": "fitness (endpoint OD595 vs no drug) (fraction); higher = more growth", "in_short": "as §1"}, "B. subtilis 168": {"system": "B. subtilis 168", "assay": "Bliss interaction score (quartile over a dose matrix) (fitness difference); higher = more antagonism (negative = synergy)", "in_short": "(§2)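 Fitness was defined as normalised growth: OD595 at the start of stationary phase divided by the plate's robust no-drug mean and capped at 1. Single-drug fitness was inferred from combination measurements. The Bliss score is observed fitness minus the product of the single-drug values, summarised by quartiles across technical, biological and donor/recipient replicates.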"}, "S. aureus DSM 20231 [3]": {"system": "S. aureus DSM 20231", "assay": "Bliss interaction score (quartile over a dose matrix) (fitness difference); higher = more antagonism (negative = synergy)", "in_short": "as §2"}, "S. aureus Newman [4]": {"system": "S. aureus Newman", "assay": "Bliss interaction score (quartile over a dose matrix) (fitness difference); higher = more antagonism (negative = synergy)", "in_short": "as §2"}, "S. pneumoniae D39V": {"system": "S. pneumoniae D39V", "assay": "Bliss interaction score (quartile over a dose matrix) (fitness difference); higher = more antagonism (negative = synergy)", "in_short": "as §2"}, "[5]": {"details": "first compound 0.75 µg/mL, partner 4 µg/mL"}, "[6]": {"details": "first compound 0.75 µg/mL, partner 8 µg/mL"}, "[7]": {"details": "first compound 0.75 µg/mL, partner 32 µg/mL, one replicate"}, "[8]": {"details": "first compound 0.75 µg/mL, partner 64 µg/mL, one replicate"}, "[9]": {"details": "first compound 1.5 µg/mL, partner 4 µg/mL"}, "[10]": {"details": "first compound 1.5 µg/mL, partner 8 µg/mL"}, "[11]": {"details": "first compound 1.5 µg/mL, partner 32 µg/mL, one replicate"}, "[12]": {"details": "first compound 1.5 µg/mL, partner 64 µg/mL, one replicate"}, "[13]": {"details": "first compound 3 µg/mL, partner 4 µg/mL"}, "[14]": {"details": "first compound 3 µg/mL, partner 8 µg/mL"}, "[15]": {"details": "first compound 3 µg/mL, partner 16 µg/mL"}, "[16]": {"details": "first compound 3 µg/mL, partner 32 µg/mL, one replicate"}, "[17]": {"details": "first compound 3 µg/mL, partner 64 µg/mL, one replicate"}, "[18]": {"details": "first compound 0.75 µg/mL, partner 0.1875 µg/mL"}, "[19]": {"details": "first compound 0.75 µg/mL, partner 0.375 µg/mL"}, "[20]": {"details": "first compound 1.5 µg/mL, partner 0.375 µg/mL"}, "[21]": {"details": "first compound 1.5 µg/mL, partner 0.75 µg/mL"}, "[22]": {"details": "first compound 3 µg/mL, partner 0.75 µg/mL"}},
  "data": [
    {"smiles": "O=C(N[C@H](CO)[C@H](O)c1ccc([N+](=O)[O-])cc1)C(Cl)Cl", "note": "[Chloramphenicol] + CN[C@@H]1[C@H](O)[C@H](NC)[C@H]2O[C@@]3(O)C(=O)C[C@@H](C)O[C@H]3O[C@@H]2[C@H]1O [Spectinomycin]", "values": [
      {"measurement": "fitness", "setting": "S. aureus DSM 20231 [1]; [5]", "value": 0.556},
      {"measurement": "fitness", "setting": "S. aureus DSM 20231 [1]; [6]", "value": 0.665},
      {"measurement": "fitness", "setting": "S. aureus DSM 20231 [1]; first compound 0.75 µg/mL, partner 16 µg/mL", "value": 0.657},
      {"measurement": "fitness", "setting": "S. aureus DSM 20231 [1]; [7]", "value": 0.493},
      {"measurement": "fitness", "setting": "S. aureus DSM 20231 [1]; [8]", "value": 0.0559},
      {"measurement": "fitness", "setting": "S. aureus DSM 20231 [1]; [9]", "value": 0.539},
      {"measurement": "fitness", "setting": "S. aureus DSM 20231 [1]; [10]", "value": 0.511},
      {"measurement": "fitness", "setting": "S. aureus DSM 20231 [1]; first compound 1.5 µg/mL, partner 16 µg/mL", "value": 0.376},
      {"measurement": "fitness", "setting": "S. aureus DSM 20231 [1]; [11]", "value": 0.259},
      {"measurement": "fitness", "setting": "S. aureus DSM 20231 [1]; [12]", "value": 0.0436},
      {"measurement": "fitness", "setting": "S. aureus DSM 20231 [1]; [13]", "value": 0.12},
      {"measurement": "fitness", "setting": "S. aureus DSM 20231 [1]; [14]", "value": 0.117},
      {"measurement": "fitness", "setting": "S. aureus DSM 20231 [1]; [15]", "value": 0.15},
      {"measurement": "fitness", "setting": "S. aureus DSM 20231 [1]; [16]", "value": 0.0743},
      {"measurement": "fitness", "setting": "S. aureus DSM 20231 [1]; [17]", "value": 0.0235},
      {"measurement": "fitness", "setting": "S. aureus Newman [2]; [5]", "value": 0.725},
      {"measurement": "fitness", "setting": "S. aureus Newman [2]; [6]", "value": 0.722},
      {"measurement": "fitness", "setting": "S. aureus Newman [2]; [7]", "value": 0.155},
      {"measurement": "fitness", "setting": "S. aureus Newman [2]; [8]", "value": 0.0289},
      {"measurement": "fitness", "setting": "S. aureus Newman [2]; [9]", "value": 0.441},
      {"measurement": "fitness", "setting": "S. aureus Newman [2]; [10]", "value": 0.42},
      {"measurement": "fitness", "setting": "S. aureus Newman [2]; [11]", "value": 0.0442},
      {"measurement": "fitness", "setting": "S. aureus Newman [2]; [12]", "value": 0.0929},
      {"measurement": "fitness", "setting": "S. aureus Newman [2]; [13]", "value": 0.207},
      {"measurement": "fitness", "setting": "S. aureus Newman [2]; [14]", "value": 0.172},
      {"measurement": "fitness", "setting": "S. aureus Newman [2]; [15]", "value": 0.0732},
      {"measurement": "fitness", "setting": "S. aureus Newman [2]; [16]", "value": 0.0229},
      {"measurement": "fitness", "setting": "S. aureus Newman [2]; [17]", "value": 0.0827},
      {"measurement": "Bliss interaction score", "setting": "B. subtilis 168", "value": -0.0556},
      {"measurement": "Bliss interaction score", "setting": "S. aureus DSM 20231 [3]", "value": -0.0533},
      {"measurement": "Bliss interaction score", "setting": "S. aureus Newman [4]", "value": -0.107},
      {"measurement": "Bliss interaction score", "setting": "S. pneumoniae D39V", "value": -0.0595}
    ]},
    {"smiles": "O=C(N[C@H](CO)[C@H](O)c1ccc([N+](=O)[O-])cc1)C(Cl)Cl", "note": "[Chloramphenicol] + CN[C@H](CC(C)C)C(=O)N[C@H]1C(=O)N[C@@H](CC(N)=O)C(=O)N[C@H]2C(=O)N[C@H]3C(=O)N[C@H](C(=O)N[C@H](C(=O)O)c4cc(O)cc(O)c4-c4cc3ccc4O)[C@H](O)c3ccc(c(Cl)c3)Oc3cc2cc(c3O[C@@H]2O[C@H](CO)[C@@H](O)[C@H](O)[C@H]2O[C@H]2C[C@](C)(N)[C@H](O)[C@H](C)O2)Oc2ccc(cc2Cl)[C@H]1O [Vancomycin]", "values": [
      {"measurement": "fitness", "setting": "S. aureus DSM 20231 [1]; [18]", "value": 0.669},
      {"measurement": "fitness", "setting": "S. aureus DSM 20231 [1]; [19]", "value": 0.7},
      {"measurement": "fitness", "setting": "S. aureus DSM 20231 [1]; first compound 1.5 µg/mL, partner 0.1875 µg/mL", "value": 0.608},
      {"measurement": "fitness", "setting": "S. aureus DSM 20231 [1]; [20]", "value": 0.654},
      {"measurement": "fitness", "setting": "S. aureus DSM 20231 [1]; [21]", "value": 0.652},
      {"measurement": "fitness", "setting": "S. aureus DSM 20231 [1]; first compound 3 µg/mL, partner 0.1875 µg/mL", "value": 0.165},
      {"measurement": "fitness", "setting": "S. aureus DSM 20231 [1]; first compound 3 µg/mL, partner 0.375 µg/mL", "value": 0.142},
      {"measurement": "fitness", "setting": "S. aureus DSM 20231 [1]; [22]", "value": 0.15},
      {"measurement": "fitness", "setting": "S. aureus Newman [2]; [18]", "value": 0.874},
      {"measurement": "fitness", "setting": "S. aureus Newman [2]; [19]", "value": 0.877},
      {"measurement": "fitness", "setting": "S. aureus Newman [2]; first compound 0.75 µg/mL, partner 0.75 µg/mL", "value": 0.836},
      {"measurement": "fitness", "setting": "S. aureus Newman [2]; [20]", "value": 0.607},
      {"measurement": "fitness", "setting": "S. aureus Newman [2]; [21]", "value": 0.634},
      {"measurement": "fitness", "setting": "S. aureus Newman [2]; [22]", "value": 0.23},
      {"measurement": "Bliss interaction score", "setting": "B. subtilis 168", "value": -0.0535},
      {"measurement": "Bliss interaction score", "setting": "S. aureus DSM 20231 [3]", "value": 0.07},
      {"measurement": "Bliss interaction score", "setting": "S. aureus Newman [4]", "value": 0.079},
      {"measurement": "Bliss interaction score", "setting": "S. pneumoniae D39V", "value": -0.0896}
    ]}
  ]
}
